Assay results published in article PMC6567099 (Journal of Enzyme Inhibition and Medicinal Chemistry, 2019).

Key:
[1] = molecular target: APAO (N1-acetylpolyamine oxidase) (Homo sapiens, UniProt Q6QHF9); test: luminol/HRP chemiluminescence assay of H2O2 with purified recombinant enzyme; type: biochemical
SMO (spermine oxidase) = SMO (spermine oxidase) (Homo sapiens, UniProt Q9NWM0); test: as above; type: biochemical
Sequence of SMO (spermine oxidase) (Q9NWM0 whole entry): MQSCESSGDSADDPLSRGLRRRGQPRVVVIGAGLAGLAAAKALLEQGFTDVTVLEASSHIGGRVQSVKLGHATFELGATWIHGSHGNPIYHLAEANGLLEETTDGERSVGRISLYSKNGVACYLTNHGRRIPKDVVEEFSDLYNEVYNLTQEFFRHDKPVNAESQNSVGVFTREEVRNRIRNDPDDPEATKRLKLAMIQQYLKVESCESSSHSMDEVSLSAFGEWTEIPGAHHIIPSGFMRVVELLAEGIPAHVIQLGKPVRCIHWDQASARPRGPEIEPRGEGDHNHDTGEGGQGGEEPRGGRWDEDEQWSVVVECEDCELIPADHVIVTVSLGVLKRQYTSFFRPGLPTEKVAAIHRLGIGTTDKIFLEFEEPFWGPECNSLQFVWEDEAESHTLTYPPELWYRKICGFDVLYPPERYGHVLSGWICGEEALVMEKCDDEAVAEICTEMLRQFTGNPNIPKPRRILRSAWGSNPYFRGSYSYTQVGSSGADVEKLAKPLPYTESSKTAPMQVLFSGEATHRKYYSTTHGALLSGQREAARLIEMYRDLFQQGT

Sequence of APAO (N1-acetylpolyamine oxidase) (Q6QHF9 whole entry): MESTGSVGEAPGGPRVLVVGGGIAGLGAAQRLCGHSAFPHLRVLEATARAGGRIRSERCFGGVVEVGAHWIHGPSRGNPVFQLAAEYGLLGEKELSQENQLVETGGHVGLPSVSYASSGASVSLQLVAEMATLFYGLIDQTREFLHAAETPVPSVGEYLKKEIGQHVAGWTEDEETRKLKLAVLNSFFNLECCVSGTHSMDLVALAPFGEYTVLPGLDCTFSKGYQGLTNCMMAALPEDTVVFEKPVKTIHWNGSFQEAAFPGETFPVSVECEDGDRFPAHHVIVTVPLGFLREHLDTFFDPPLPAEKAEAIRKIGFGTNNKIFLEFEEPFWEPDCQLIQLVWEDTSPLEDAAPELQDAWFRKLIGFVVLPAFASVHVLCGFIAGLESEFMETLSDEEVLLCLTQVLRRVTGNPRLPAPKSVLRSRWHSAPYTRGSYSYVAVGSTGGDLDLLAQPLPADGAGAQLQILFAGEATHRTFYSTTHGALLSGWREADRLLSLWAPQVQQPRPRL

CN(C)CCCNCCCNC(=O)c1cccc2cccnc12 [SI-4650, N-(3-{[3-(dimethylamino)propyl]amino}propyl)-8-quinolinecarboxamide]
IC50 [1]: 35.4 ± 0.26 µM
IC50 (SMO (spermine oxidase)): 381.8 ± 0.17 µM
